Target: T1, NK3 receptor (Homo sapiens, UniProt P29371)
T1 construct: expressed in transfected cells; host or cells: CHO cell lines (plasma membranes)
T1 sequence (P29371 1-465): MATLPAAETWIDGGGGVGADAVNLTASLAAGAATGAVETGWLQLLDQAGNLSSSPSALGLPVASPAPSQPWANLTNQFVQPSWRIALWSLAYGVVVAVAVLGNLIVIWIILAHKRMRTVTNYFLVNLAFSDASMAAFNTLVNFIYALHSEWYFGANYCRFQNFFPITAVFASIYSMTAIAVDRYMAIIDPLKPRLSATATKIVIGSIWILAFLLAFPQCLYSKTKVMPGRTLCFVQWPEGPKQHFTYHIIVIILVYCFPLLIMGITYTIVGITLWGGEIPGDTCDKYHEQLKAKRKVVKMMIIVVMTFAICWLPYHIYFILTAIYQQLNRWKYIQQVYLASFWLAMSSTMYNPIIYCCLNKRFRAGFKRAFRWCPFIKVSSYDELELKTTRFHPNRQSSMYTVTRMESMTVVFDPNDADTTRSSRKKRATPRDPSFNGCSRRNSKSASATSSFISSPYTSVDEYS
Assay: NK3 binding affinity, scintillation proximity assay (SPA), 125I [MePhe7]-NKB
Conditions: membranes from CHO cell lines expressing NK3 receptors; radioligand 125I [MePhe7]-NKB
Experimental: a) Measurement of NK3 Binding Affinity
The NK3 binding affinity of the compounds of the invention was determined using the following scintillation proximity assay (SPA) (see H. M. Sarau et al, J. Pharmacol. Experimental Therapeutics 1997, 281(3), 1303-1311; H. M. Sarau et al, J. Pharmacol. Experimental Therapeutics 2000, 295(1), 373-381; G. A. M. Giardina et al J. Med. Chem 1999, 42, 1053-1065). Polystyrene Leadseeker WGA-SPA beads (Amersham Biosciences) were mixed with plasma membrane prepared from CHO cell lines expressing NK3 receptors in a bead/membrane ratio of 20:1 (w/w) in assay buffer (75 mM Tris pH 7.8, 75mM NaCl, 4 mM MnCl2, 1 mM EDTA, 0.05% Chaps, 1 mM PMSF). The mixture was placed on ice for 20 minutes to allow the formation of membrane/bead complex before BSA was added to a final concentration of 1%. After another 20 minutes incubation on ice, the bead/membrane complex was washed twice and suspended in assay buffer. ^125I [MePhe7]-NKB was then added to the bead/membrane complex. […] After 2-3 hours incubation at room temperature with shaking, the plates were spun for 2 min at 1100 rpm and measured in Viewlux imager (PerkinElmer) for 5 minutes with a 618-nm filter. Inhibition of the radioactive ligand binding to the NK3 receptor was measured by the reduction of signal. pKi was calculated using Kd of the radioactive ligand determined in a separate experiment.

Ki: 3.16 nM
SMILES: O=C(N[C@H](c1cccc(F)c1)C1CC1)c1c(CN2CCCC2=O)c(-c2ccccc2)nc2ccccc12 [Example 1, N-[(S)-Cyclopropyl(3-fluorophenyl)methyl]-3-[(2-oxo-1-pyrrolidinyl)methyl]-2-phenyl-4-quinolinecarboxamide]
